Results: ChEMBL document CHEMBL1154653, “Discovery and pharmacological characterization of aryl piperazine and piperidine ethers as dual acting norepinephrine reuptake inhibitors and 5-HT1A partial agonists” (Bioorg Med Chem Lett, 2009)

Assays:
[1] = biological target: T1, 5-hydroxytryptamine receptor 1A (Homo sapiens, UniProt P08908); test: biochemical
T1 sequence (P08908 whole entry): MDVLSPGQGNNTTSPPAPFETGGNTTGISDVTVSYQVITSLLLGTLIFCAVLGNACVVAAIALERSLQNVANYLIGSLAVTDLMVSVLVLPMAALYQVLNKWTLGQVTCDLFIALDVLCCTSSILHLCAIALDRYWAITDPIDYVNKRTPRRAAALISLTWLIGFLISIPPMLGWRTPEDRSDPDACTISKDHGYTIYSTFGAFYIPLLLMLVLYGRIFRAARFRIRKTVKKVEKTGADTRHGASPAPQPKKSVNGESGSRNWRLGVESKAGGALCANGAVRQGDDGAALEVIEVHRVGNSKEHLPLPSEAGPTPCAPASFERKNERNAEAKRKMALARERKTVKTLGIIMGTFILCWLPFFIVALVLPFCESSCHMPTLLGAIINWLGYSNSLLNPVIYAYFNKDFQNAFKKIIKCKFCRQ
Description: Displacement of [3H]8-OH-DPAT from human 5HT1A receptor expressed in CHO cells

[2] = biological target: T2, Sodium-dependent serotonin transporter (Homo sapiens, UniProt P31645); test: biochemical
Description: Displacement of [125I]RTI-55 from human SERT expressed in HEK293 cells

[3] = biological target: T3, Sodium-dependent dopamine transporter (Homo sapiens, UniProt Q01959); format: cell-based, HEK293
[4] = biological target: T4, Sodium-dependent noradrenaline transporter (Homo sapiens, UniProt P23975); test: biochemical
Description: Displacement of [125I]RTI-55 from human NET expressed in HEK293 cells

[5] = biological target: T1, 5-hydroxytryptamine receptor 1A; test: Partial agonist activity at human 5HT1A expressed in HEK293 cells by FLIPR assay; format: functional, cell-based
Rattus norvegicus [6] = test: Ex vivo receptor occupancy at 5HT1A receptor in Sprague-Dawley rat brain at 10 mg/kg, sc by [3H]-OH-DAPT binding; format: functional; conditions: route subcutaneous
[7] = biological target: T5, 5-hydroxytryptamine receptor 1A (Homo sapiens) (UniProt P08908); test: Partial agonist activity at human 5HT1A expressed in HEK293 cells by FLIPR assay relative to 5HT; format: functional, cell-based
T5 sequence (whole entry): T1 sequence (P08908 whole entry)

Rattus norvegicus [8] = test: Ex vivo receptor occupancy at NET receptor in Sprague-Dawley rat brain at 10 mg/kg, sc by [3H]nisoxetine binding; format: functional; conditions: route subcutaneous
[9] = Apparent intrinsic clearance in human liver microsomes; format: ADME, Microsome
[10] = biological target: T3, Sodium-dependent dopamine transporter; test: Inhibition of dopamine uptake at human DAT expressed in HEK293 cells; format: cell-based
[11] = biological target: T2, Sodium-dependent serotonin transporter; test: Inhibition of [3H]5-HT uptake at human 5HTT expressed in HEK293 cells; format: cell-based
[12] = biological target: T4, Sodium-dependent noradrenaline transporter; test: Inhibition of norepinephrine uptake at human NET expressed in HEK293 cells; format: cell-based

T2 sequence (P31645 whole entry): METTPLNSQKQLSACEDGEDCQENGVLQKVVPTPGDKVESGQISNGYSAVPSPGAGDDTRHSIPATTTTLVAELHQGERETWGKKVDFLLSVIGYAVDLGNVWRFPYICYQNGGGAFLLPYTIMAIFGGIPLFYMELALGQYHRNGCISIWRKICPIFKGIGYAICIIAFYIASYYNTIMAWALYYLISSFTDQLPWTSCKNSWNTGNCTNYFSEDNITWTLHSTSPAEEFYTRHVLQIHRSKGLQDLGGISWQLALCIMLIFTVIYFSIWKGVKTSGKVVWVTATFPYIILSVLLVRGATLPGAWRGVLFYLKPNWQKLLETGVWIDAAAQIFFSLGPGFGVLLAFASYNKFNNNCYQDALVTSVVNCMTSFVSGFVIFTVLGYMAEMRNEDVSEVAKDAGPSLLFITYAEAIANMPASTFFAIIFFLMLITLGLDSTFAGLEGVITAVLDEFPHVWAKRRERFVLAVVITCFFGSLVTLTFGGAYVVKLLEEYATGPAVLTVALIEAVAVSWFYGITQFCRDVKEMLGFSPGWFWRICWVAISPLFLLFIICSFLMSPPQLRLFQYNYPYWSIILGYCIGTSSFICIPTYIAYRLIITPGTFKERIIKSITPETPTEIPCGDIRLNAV
T4 sequence (P23975 whole entry): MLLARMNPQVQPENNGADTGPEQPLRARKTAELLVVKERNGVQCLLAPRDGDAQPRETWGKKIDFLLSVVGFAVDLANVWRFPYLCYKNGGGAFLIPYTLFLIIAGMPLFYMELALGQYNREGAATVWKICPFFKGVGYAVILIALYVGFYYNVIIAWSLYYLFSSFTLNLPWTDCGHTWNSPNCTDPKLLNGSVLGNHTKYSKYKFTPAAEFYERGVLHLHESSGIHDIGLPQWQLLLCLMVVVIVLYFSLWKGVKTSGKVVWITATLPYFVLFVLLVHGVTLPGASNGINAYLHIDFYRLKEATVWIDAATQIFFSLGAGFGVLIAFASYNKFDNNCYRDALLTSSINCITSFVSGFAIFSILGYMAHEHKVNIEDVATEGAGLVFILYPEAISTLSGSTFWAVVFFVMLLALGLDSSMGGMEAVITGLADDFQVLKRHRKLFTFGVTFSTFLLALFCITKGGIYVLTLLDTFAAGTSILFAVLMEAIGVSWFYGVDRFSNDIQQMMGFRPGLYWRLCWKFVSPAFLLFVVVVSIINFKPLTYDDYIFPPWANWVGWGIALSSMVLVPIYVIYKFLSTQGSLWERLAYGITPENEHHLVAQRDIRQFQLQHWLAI
T3 sequence (Q01959 whole entry): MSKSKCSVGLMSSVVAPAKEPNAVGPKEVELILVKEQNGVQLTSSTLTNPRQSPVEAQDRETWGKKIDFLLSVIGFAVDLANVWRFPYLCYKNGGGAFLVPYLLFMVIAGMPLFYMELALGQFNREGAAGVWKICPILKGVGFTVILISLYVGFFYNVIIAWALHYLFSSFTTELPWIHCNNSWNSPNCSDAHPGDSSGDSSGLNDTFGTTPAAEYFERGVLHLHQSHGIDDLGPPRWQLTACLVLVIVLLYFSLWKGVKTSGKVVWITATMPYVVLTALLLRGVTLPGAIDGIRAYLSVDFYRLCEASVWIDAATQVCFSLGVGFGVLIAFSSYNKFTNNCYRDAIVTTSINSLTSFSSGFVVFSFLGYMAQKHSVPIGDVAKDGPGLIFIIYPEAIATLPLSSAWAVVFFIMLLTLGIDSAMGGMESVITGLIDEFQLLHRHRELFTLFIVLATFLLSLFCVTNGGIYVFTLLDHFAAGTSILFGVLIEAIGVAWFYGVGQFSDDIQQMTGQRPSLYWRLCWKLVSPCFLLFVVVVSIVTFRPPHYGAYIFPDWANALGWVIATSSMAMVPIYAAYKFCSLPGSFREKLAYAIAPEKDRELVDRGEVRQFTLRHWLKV

## Fc1ccc(COc2ccccc2C2CCNCC2)cc1
[1]
  Ki: 77 nM

## Fc1cccc(Oc2ccccc2N2CCNCC2)c1
[1]
  Ki: 9 nM

## Fc1cccc(OCc2ccccc2N2CCNCC2)c1
[2]
  Ki: 17 nM
[3]
  Ki: > 2000 nM
[4]
  Ki: 104 nM
[1]
  Ki: 116 nM

## Fc1cccc(OCc2ccccc2N2CCNCC2)c1F
[1]
  Ki: 101 nM

## Cc1ccc(C2CCNCC2)c(Oc2ccc(F)cc2)c1
[2]
  Ki: 427 nM
[3]
  Ki: 1680 nM
[4]
  Ki: 115 nM
[1]
  Ki: > 4570 nM

## Fc1cccc(OCc2ccccc2C2CCNCC2)c1
[2]
  Ki: 49 nM
[3]
  Ki: 461 nM
[4]
  Ki: 1940 nM
[1]
  Ki: > 1000 nM

## c1ccc(COc2ccccc2N2CCNCC2)cc1
[5]
  EC50: > 10000 nM
[1]
  Ki: 28 nM

## c1ccc(Oc2ccccc2N2CCNCC2)cc1
[3]
  Ki: 4730 nM
[4]
  Ki: 554 nM
[1]
  Ki: 128 nM

## Cc1ccc(C2CCNCC2)c(Oc2cccc(F)c2)c1
[1]
  Ki: > 4570 nM

## Fc1ccc(COc2ccc(Cl)cc2C2CCNCC2)cc1
[2]
  Ki: 40 nM
[3]
  Ki: 5530 nM
[4]
  Ki: 6 nM
[1]
  Ki: > 1000 nM

## Fc1ccccc1COc1ccccc1C1CCNCC1
[1]
  Ki: 47 nM

## Cc1ccc(F)c(Oc2ccccc2C2CCNCC2)c1
[2]
  Ki: 26 nM
[3]
  Ki: 1080 nM
[4]
  Ki: 3 nM
[1]
  Ki: 57 nM

## O=C1C(Cc2ccccc2N2CCNCC2)SCCN1c1ccc(Cl)c(Cl)c1 (centres undefined)
[2]
  Ki: 81 nM
[3]
  Ki: 87 nM
[4]
  Ki: 5 nM
[1]
  Ki: 9 nM

## Fc1cccc(OCc2ccccc2)c1C1CCNCC1
[1]
  Ki: 364 nM

## c1ccc(OCc2ccccc2N2CCNCC2)cc1
[2]
  Ki: 780 nM
[3]
  Ki: 701 nM
[1]
  Ki: 189 nM

## Fc1ccc(Oc2cc(F)c(F)cc2C2CCNCC2)cc1
[1]
  Ki: > 4570 nM

## Fc1cccc(Oc2cccc(F)c2C2CCNCC2)c1
Rattus norvegicus [6]
  Activity: 77%
[7]
  Emax: 74%
Rattus norvegicus [8]
  Activity: 80%
[5]
  EC50: 137 nM
[1]
  Ki: 21 nM

## Fc1ccc(COc2ccc(F)cc2C2CCNCC2)cc1
[1]
  Ki: 2210 nM

## Fc1ccc(Oc2ccccc2C2CCNCC2)cc1
[1]
  Ki: 117 nM

## Fc1ccc(Oc2ccccc2N2CCNCC2)cc1
[1]
  Ki: 8 nM

## Fc1cccc(Oc2ccccc2)c1C1CCNCC1
[2]
  Ki: 706 nM
[3]
  Ki: 45 nM
[4]
  Ki: 170 nM
[1]
  Ki: 128 nM

## O=C1/C(=C/c2ccccc2N2CCNCC2)SCCN1c1ccc(F)cc1F
[2]
  Ki: 98 nM
[3]
  Ki: 1360 nM
[4]
  Ki: 650 nM
[1]
  Ki: 4 nM

## c1ccc(N2CCNCC2)c(COc2ccccc2C2CC2)c1
[1]
  Ki: 466 nM

## Fc1cccc(C2CCNCC2)c1Oc1ccccc1
[9]
  microsomal CLint: 15 µL/min/mg
[10]
  EC50: 982 nM
[2]
  Ki: 2330 nM
[11]
  EC50: 1760 nM
[12]
  EC50: 358 nM
[7]
  Emax: 35%
[3]
  Ki: 239 nM
[4]
  Ki: 1370 nM
[5]
  EC50: 877 nM
[1]
  Ki: 20 nM

## c1ccc(COc2ccccc2C2CCNCC2)cc1
[2]
  Ki: 74 nM
[3]
  Ki: 1000 nM
[4]
  Ki: 76 nM
[1]
  Ki: 121 nM

## Fc1cccc(Oc2ccccc2C2CCNCC2)c1
[7]
  Emax: 51%

## Fc1cccc(C2CCNCC2)c1OCc1ccccc1
[2]
  Ki: 2970 nM
[3]
  Ki: 7370 nM
[4]
  Ki: 9 nM
[1]
  Ki: 606 nM

## c1ccc(Oc2ccccc2C2CCNCC2)cc1
[2]
  Ki: 1760 nM
[3]
  Ki: 284 nM
[4]
  Ki: 416 nM
[1]
  Ki: 63 nM

## c1ccc(OCc2ccccc2C2CCNCC2)cc1
[2]
  Ki: 364 nM
[3]
  Ki: 396 nM
[4]
  Ki: 1710 nM
[1]
  Ki: > 1000 nM

## Fc1ccccc1COc1ccccc1N1CCNCC1
[2]
  Ki: 978 nM
[3]
  Ki: > 10000 nM
[4]
  Ki: 526 nM
[1]
  Ki: 31 nM

## Clc1cccc(Oc2ccccc2C2CCNCC2)c1
[7]
  Emax: 44%
[5]
  EC50: 1150 nM
[1]
  Ki: 5 nM

## Fc1ccc(OCc2ccc(Cl)c(Cl)c2)c(C2CCNCC2)c1
[2]
  Ki: 2 nM
[3]
  Ki: 452 nM
[4]
  Ki: 20 nM
[1]
  Ki: 1160 nM
